Reference: patent publication US10988523B2, “Modified lipidated Relaxin B chain peptides and their therapeutic use” (Sanofi, priority 2018, dated 2021)
*1 amine or outer side, *2 acyl side, *3 side chain or, on linkers, in order; H or OH if unused. Where a SMILES comes first, the peptide text is derived from it. Side-chain parts run from the residue outwards. [ ]: non-standard residue; d: D form. The star is where a group is joined. Trp(5-OH) = N[C@@H](Cc1c[nH]c2ccc(O)cc12)C(=O)O; Heptadecanoyl = CCCCCCCCCCCCCCCCC(=O)*; γGlu = O=C(O)[C@H](CCC(=O)[*:2])N[*:1]; Pentadecanoyl = CCCCCCCCCCCCCCC(=O)*; Stearoyl = CCCCCCCCCCCCCCCCCC(=O)*; Palmitoyl = CCCCCCCCCCCCCCCC(=O)*; αMeK = C[C@](N)(CCCCN)C(=O)O; Lauroyl = CCCCCCCCCCCC(=O)*; Nle = CCCC[C@H](N)C(=O)O; AEEA = NCCOCCOCC(=O)O; Aib = CC(C)(N)C(=O)O

Molecular target: T1, RXFP1 (Homo sapiens, UniProt Q9HBX9)
T1 construct: OVCAR5 cells expressing endogenous RXFP1; endogenous in cells; host or cells: OVCAR5 cells
T1 sequence (Q9HBX9 1-757): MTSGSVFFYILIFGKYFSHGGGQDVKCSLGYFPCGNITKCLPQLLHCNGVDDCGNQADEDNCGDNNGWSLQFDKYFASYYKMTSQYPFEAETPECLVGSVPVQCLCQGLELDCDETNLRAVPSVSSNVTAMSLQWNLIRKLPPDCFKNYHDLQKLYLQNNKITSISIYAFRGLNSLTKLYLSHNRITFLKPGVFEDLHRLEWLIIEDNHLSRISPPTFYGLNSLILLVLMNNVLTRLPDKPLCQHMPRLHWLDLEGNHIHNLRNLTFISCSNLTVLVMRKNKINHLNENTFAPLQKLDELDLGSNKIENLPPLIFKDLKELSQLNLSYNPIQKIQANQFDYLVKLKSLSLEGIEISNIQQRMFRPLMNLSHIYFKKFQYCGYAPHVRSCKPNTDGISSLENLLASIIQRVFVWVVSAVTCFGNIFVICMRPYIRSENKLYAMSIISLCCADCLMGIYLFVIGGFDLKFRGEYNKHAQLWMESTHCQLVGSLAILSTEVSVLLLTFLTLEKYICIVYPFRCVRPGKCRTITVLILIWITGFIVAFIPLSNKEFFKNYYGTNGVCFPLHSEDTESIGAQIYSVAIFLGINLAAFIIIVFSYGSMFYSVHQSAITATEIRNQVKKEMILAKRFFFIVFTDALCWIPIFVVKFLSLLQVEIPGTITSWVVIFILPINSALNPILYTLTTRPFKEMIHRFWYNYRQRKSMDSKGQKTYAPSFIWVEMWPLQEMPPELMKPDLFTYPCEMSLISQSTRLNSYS
Assay: OVCAR5 cAMP assay (HTRF), RXFP1 agonist activity
Type: cell-based
Conditions: for EC50: OVCAR5 cells, cAMP HTRF, read-out: EC50 (nM), OVCAR 5 cells (cAMP); for Emax: OVCAR-5, maximal cAMP relative to H2-relaxin maximum (100%), read-out: EMax, OVCAR 5 cells (cAMP)
Summary of the method: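 OVCAR5 cells (endogenous RXFP1) pretreated 40 min at 37° C with 1 mM IBMX, then exposed to peptides in serum-free medium for 30 min at 37° C. Lysate cAMP read by HTRF; EC50 from variable-slope sigmoidal fit; Emax as % of H2-relaxin maximal cAMP in same run.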

| SMILES | EC50 [nM] | Emax [%] |
| --- | --- | --- |
| CCCCCCCCCCCCCCCCCC(=O)N[C@@H](CCC(=O)N[C@@H](CCC(=O)N[C@@H](CCC(=O)NCCOCCOCC(=O)NCCOCCOCC(=O)NCCOCCOCC(=O)NCCCC[C@H](NC(=O)[C@H](CCCCNC(C)=O)NC(=O)[C@H](CCCCN)NC(=O)[C@H](CCCNC(=N)N)NC(=O)C(C)(C)NC(=O)[C@H](CO)NC(=O)[C@H](Cc1c[nH]c2ccc(O)cc12)NC(=O)[C@@H](NC(=O)[C@H](CO)NC(=O)[C@H](CCCC)NC(=O)CNC(=O)[C@H](CCC(=O)O)NC(=O)C(C)(C)NC(=O)C(C)(C)NC(=O)[C@@H](NC(=O)[C@H](CCCCNC(C)=O)NC(=O)[C@H](C)NC(=O)[C@H](CCCNC(=N)N)NC(=O)[C@@H](NC(=O)[C@H](CCCCN)NC(=O)[C@H](CCC(=O)O)NC(=O)[C@H](CCCNC(=N)N)NC(=O)CNC(=O)[C@H](CCC(=O)O)NC(=O)[C@H](CC(C)C)NC(C)=O)C(C)C)[C@@H](C)CC)[C@@H](C)O)C(N)=O)C(=O)O)C(=O)O)C(=O)O [compound 158] (Ac-LEGREKVRAK(Ac)I[Aib][Aib]EG[Nle]ST[Trp(5-OH)]S[Aib]RKK(Ac)K([AEEA-AEEA-AEEA-γGlu-γGlu-γGlu-Stearoyl])-NH2) | 0.14 | 90 |
| CCCCCCCCCCCCCCCC(=O)N[C@@H](CCC(=O)N[C@@H](CCC(=O)NCCCC[C@H](NC(=O)CC[C@H](NC(=O)CC[C@H](NC(=O)COCCOCCNC(=O)COCCOCCNC(=O)COCCOCCNC(=O)COCCOCCNC(=O)[C@H](CCCCNC(C)=O)NC(=O)[C@H](CCCCN)NC(=O)[C@H](CCCNC(=N)N)NC(=O)[C@](C)(CCCCN)NC(=O)[C@H](CO)NC(=O)[C@H](Cc1ccccc1)NC(=O)[C@@H](NC(=O)[C@H](CO)NC(=O)[C@H](CCCC)NC(=O)CNC(=O)[C@H](CCC(=O)O)NC(=O)C(C)(C)NC(=O)C(C)(C)NC(=O)[C@@H](NC(=O)[C@H](CCCCNC(C)=O)NC(=O)[C@H](C)NC(=O)[C@H](CCCNC(=N)N)NC(=O)[C@@H](NC(=O)[C@H](CCCCN)NC(=O)[C@H](CCC(=O)O)NC(=O)[C@H](CCCNC(=N)N)NC(=O)CNC(=O)[C@H](CCC(=O)O)NC(=O)[C@H](CC(C)C)NC(C)=O)C(C)C)[C@@H](C)CC)[C@@H](C)O)C(=O)O)C(=O)O)C(N)=O)C(=O)O)C(=O)O [compound 159] (Ac-LEGREKVRAK(Ac)I[Aib][Aib]EG[Nle]STFS[αMeK]RKK(Ac)[AEEA][AEEA][AEEA][AEEA][γGlu][γGlu]K([γGlu-γGlu-Palmitoyl])-NH2) | 0.02 | 88 |
| CCCCCCCCCCCC(=O)N[C@@H](CCC(=O)N[C@@H](CCC(=O)N[C@@H](CCC(=O)N[C@@H](CCC(=O)NCCCC[C@H](NC(=O)COCCOCCNC(=O)COCCOCCNC(=O)COCCOCCNC(=O)COCCOCCNC(=O)[C@H](CCCCNC(C)=O)NC(=O)[C@H](C)NC(=O)[C@H](CCCNC(=N)N)NC(=O)[C@](C)(CCCCN)NC(=O)[C@H](CO)NC(=O)[C@H](Cc1ccccc1)NC(=O)[C@@H](NC(=O)[C@H](CO)NC(=O)[C@H](CCC(N)=O)NC(=O)CNC(=O)[C@H](CCC(=O)O)NC(=O)C(C)(C)NC(=O)C(C)(C)NC(=O)[C@@H](NC(=O)[C@H](CCCCNC(C)=O)NC(=O)[C@H](C)NC(=O)[C@H](CCCNC(=N)N)NC(=O)[C@@H](NC(=O)[C@H](CCCCN)NC(=O)[C@H](CCC(=O)O)NC(=O)[C@H](CCCNC(=N)N)NC(=O)CNC(=O)[C@H](CCC(=O)O)NC(=O)[C@H](CC(C)C)NC(C)=O)C(C)C)[C@@H](C)CC)[C@@H](C)O)C(N)=O)C(=O)O)C(=O)O)C(=O)O)C(=O)O [compound 161] (Ac-LEGREKVRAK(Ac)I[Aib][Aib]EGQSTFS[αMeK]RAK(Ac)[AEEA][AEEA][AEEA][AEEA]K([γGlu-γGlu-γGlu-γGlu-Lauroyl])-NH2) |  | 94 |
| CCCCCCCCCCCCCCC(=O)N[C@@H](CCC(=O)N[C@@H](CCC(=O)N[C@@H](CCC(=O)NCCOCCOCC(=O)NCCOCCOCC(=O)NCCOCCOCC(=O)NCCCC[C@H](NC(=O)[C@H](CCCCNC(C)=O)NC(=O)[C@H](CCCCN)NC(=O)[C@H](CCCNC(=N)N)NC(=O)C(C)(C)NC(=O)[C@H](CO)NC(=O)[C@H](Cc1c[nH]c2ccccc12)NC(=O)[C@@H](NC(=O)[C@H](CO)NC(=O)[C@H](CCCC)NC(=O)CNC(=O)[C@H](CCC(=O)O)NC(=O)C(C)(C)NC(=O)C(C)(C)NC(=O)[C@@H](NC(=O)[C@H](CCCCNC(C)=O)NC(=O)[C@H](C)NC(=O)[C@H](CCCNC(=N)N)NC(=O)[C@@H](NC(=O)[C@H](CCCCN)NC(=O)[C@H](CCC(=O)O)NC(=O)[C@H](CCCNC(=N)N)NC(=O)CNC(=O)[C@H](CCC(=O)O)NC(=O)[C@H](CC(C)C)NC(C)=O)C(C)C)[C@@H](C)CC)[C@@H](C)O)C(N)=O)C(=O)O)C(=O)O)C(=O)O [compound 163] (Ac-LEGREKVRAK(Ac)I[Aib][Aib]EG[Nle]STWS[Aib]RKK(Ac)K([AEEA-AEEA-AEEA-γGlu-γGlu-γGlu-Pentadecanoyl])-NH2) |  | 87 |
| CCCCCCCCCCCCCCCCC(=O)N[C@@H](CCC(=O)N[C@@H](CCC(=O)N[C@@H](CCC(=O)NCCOCCOCC(=O)NCCOCCOCC(=O)NCCOCCOCC(=O)NCCCC[C@H](NC(=O)[C@H](CCCCNC(C)=O)NC(=O)[C@H](CCCCN)NC(=O)[C@H](CCCNC(=N)N)NC(=O)C(C)(C)NC(=O)[C@H](CO)NC(=O)[C@H](Cc1c[nH]c2ccccc12)NC(=O)[C@@H](NC(=O)[C@H](CO)NC(=O)[C@H](CCCC)NC(=O)CNC(=O)[C@H](CCC(=O)O)NC(=O)C(C)(C)NC(=O)C(C)(C)NC(=O)[C@@H](NC(=O)[C@H](CCCCNC(C)=O)NC(=O)[C@H](C)NC(=O)[C@H](CCCNC(=N)N)NC(=O)[C@@H](NC(=O)[C@H](CCCCN)NC(=O)[C@H](CCC(=O)O)NC(=O)[C@H](CCCNC(=N)N)NC(=O)CNC(=O)[C@H](CCC(=O)O)NC(=O)[C@H](CC(C)C)NC(C)=O)C(C)C)[C@@H](C)CC)[C@@H](C)O)C(N)=O)C(=O)O)C(=O)O)C(=O)O [compound 164] (Ac-LEGREKVRAK(Ac)I[Aib][Aib]EG[Nle]STWS[Aib]RKK(Ac)K([AEEA-AEEA-AEEA-γGlu-γGlu-γGlu-Heptadecanoyl])-NH2) |  | 93 |
| CCCCCCCCCCCCCCCC(=O)N[C@@H](CCC(=O)NCCOCCOCC(=O)N[C@@H](CCC(=O)N[C@@H](CCC(=O)NCCOCCOCC(=O)NCCOCCOCC(=O)NCCCC[C@H](NC(=O)[C@H](CCCCNC(C)=O)NC(=O)[C@H](CCCCN)NC(=O)[C@H](CCCNC(=N)N)NC(=O)C(C)(C)NC(=O)[C@H](CO)NC(=O)[C@H](Cc1c[nH]c2ccccc12)NC(=O)[C@@H](NC(=O)[C@H](CO)NC(=O)[C@H](CCCC)NC(=O)CNC(=O)[C@H](CCC(=O)O)NC(=O)C(C)(C)NC(=O)C(C)(C)NC(=O)[C@@H](NC(=O)[C@H](CCCCNC(C)=O)NC(=O)[C@H](C)NC(=O)[C@H](CCCNC(=N)N)NC(=O)[C@@H](NC(=O)[C@H](CCCCN)NC(=O)[C@H](CCC(=O)O)NC(=O)[C@H](CCCNC(=N)N)NC(=O)CNC(=O)[C@H](CCC(=O)O)NC(=O)[C@H](CC(C)C)NC(C)=O)C(C)C)[C@@H](C)CC)[C@@H](C)O)C(N)=O)C(=O)O)C(=O)O)C(=O)O [compound 165] (Ac-LEGREKVRAK(Ac)I[Aib][Aib]EG[Nle]STWS[Aib]RKK(Ac)K([AEEA-AEEA-γGlu-γGlu-AEEA-γGlu-Palmitoyl])-NH2) | 0.38 | 105 |
